From patent US9242975B2, “Heterocyclic-substituted pyridyl compounds useful as kinase inhibitors” (Bristol-Myers Squibb Company, priority 2012, dated 2016)

Biological target: IRAK4 (Homo sapiens (Human), UniProt Q9NWZ3)
Assay: IRAK4 Inhibition Assay
Type: biochemical
Details: ATP 500 μM; FL-IPTSPITTTYFFFKKK peptide 1.5 μM; IRAK4 0.6 nM; 60 min at room temperature; Caliper LabChip 3000
Experimental: The assays were performed in U-bottom 384-well plates. The final assay volume was 30 μL prepared from 15 μL additions of enzyme and substrates (fluoresceinated peptide and ATP) and test compounds in assay buffer (20 mM HEPES pH 7.2, 10 mM MgCl2, 0.015% Brij35 and 4 mM DTT). The reaction was initiated by the combination of IRAK4 with substrates and test compounds. The reaction was incubated at room temperature for 60 min. and terminated by adding 45 μL of 35 mM EDTA to each sample. The reaction mixture was analyzed on the Caliper LabChip 3000 (Caliper, Hopkinton, Mass.) by electrophoretic separation of the fluorescent substrate and phosphorylated product. Inhibition data were calculated by comparison to no enzyme control reactions for 100% inhibition and vehicle-only reactions for 0% inhibition. The final concentrations of reagents in the assays are ATP, 500 μM; FL-IPTSPITTTYFFFKKK peptide 1.5 μM; IRAK4, 0.6 nM; and DMSO, 1.6%.

IRAK4, sequence (Q9NWZ3 whole entry): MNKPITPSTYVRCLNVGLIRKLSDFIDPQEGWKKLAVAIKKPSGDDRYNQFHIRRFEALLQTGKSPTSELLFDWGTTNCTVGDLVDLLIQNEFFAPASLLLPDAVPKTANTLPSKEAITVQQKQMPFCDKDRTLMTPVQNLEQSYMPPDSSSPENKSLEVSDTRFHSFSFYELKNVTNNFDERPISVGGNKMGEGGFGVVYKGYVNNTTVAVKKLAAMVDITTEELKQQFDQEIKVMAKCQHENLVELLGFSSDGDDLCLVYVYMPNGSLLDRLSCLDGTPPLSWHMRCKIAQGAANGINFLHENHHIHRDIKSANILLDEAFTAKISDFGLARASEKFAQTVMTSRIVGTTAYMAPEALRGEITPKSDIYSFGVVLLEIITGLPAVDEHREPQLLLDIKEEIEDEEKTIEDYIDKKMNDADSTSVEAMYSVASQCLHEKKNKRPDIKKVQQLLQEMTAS

CNC(=O)c1nc(-c2cnc(Nc3ccc4ncsc4c3)cc2NC(C)C)sc1C [Example 27, 2-(6-(benzo[d]thiazol-6-ylamino)-4-(isopropylamino)pyridin-3-yl)-N,5-dimethylthiazole-4-carboxamide]
IC50: 1.8 nM
